From ChEMBL document CHEMBL1201862, “PubChem BioAssay data set” (2004) come the findings set out here.

Each structure is given as a SMILES string.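 All cell lines were grown in 96-well plates and treated with compound for 48 hours. GI50 is the concentration that inhibits growth by half.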 Activity calls are given as the source filed them. Rule as the data show it: active = GI50 up to about 1.1 µM and inactive = higher. Where only a bound is given, the exact number is not on record here.

Test systems include HCT-116; SK-MEL-5; SW-620; HCT-15; RPMI-8226; EKVX; NCI-H23; NCI-H460; LOX IMVI; M19-MEL; DLD-1; K562; M14; A498; RXF 393; NCI-H226; KM12; UACC-257.
What all share (test): growth of human tumour cells (NCI), 48 h

With `Cn1nc(-c2ccccc2)c(C(=O)/C=C/c2ccc(F)cc2)c(N2CCOCC2)c1=O`, the GI50 was 4.21 µM (inactive) in the assay on HCT-116; 14.8 µM (inactive) in the assay with SK-MEL-5; 21.3 µM (inactive) with SW-620; 23.6 µM with HCT-15; 4.57 µM (inactive) in the assay on RPMI-8226; 25.7 µM (inactive) in the assay with EKVX. The GI50 is > 10 µM (inactive) in the assay with NCI-H23; 24.4 µM (inactive) in the assay with NCI-H460; 21.1 µM (inactive) in the assay on LOX IMVI; 18.5 µM (inactive) in the assay on M19-MEL; 23.1 µM (inactive) in the assay on DLD-1; 16.8 µM (inactive) in the assay on K562. Also, the GI50 in the assay on M14 is 21.8 µM (inactive); in the assay with A498 it was 17.7 µM (inactive); in the assay with RXF 393, 13.6 µM (inactive).
As to `CN(C)CCNC(=O)c1ccc(Cl)c2c(Nc3ccc(S(=O)(=O)N=C(N)N)cc3)c3ccccc3nc12`, the GI50 is 3.9 µM (inactive) in the assay on HCT-116; 8.04 µM (inactive) in the assay with SK-MEL-5; 1.73 µM (inactive) in the assay on SW-620; 2.08 µM (inactive) with NCI-H226; 5.02 µM in the assay with HCT-15; 11.4 µM (inactive) in the assay on EKVX. Further, the GI50 is 4.68 µM (inactive) in the assay on NCI-H23; 1.63 µM (inactive) in the assay with NCI-H460; 1.75 µM (inactive) with LOX IMVI; 3.86 µM (inactive) with M19-MEL; 5.62 µM (inactive) in the assay with DLD-1; 2.77 µM (inactive) with K562. Further, the GI50 in the assay on M14 was 7.38 µM (inactive); in the assay on RXF 393 it was 4.66 µM (inactive); in the assay on KM12, 4.21 µM (inactive).
As to `COc1ccc2cccc(C(=O)c3ccc(C)c4c3CCC4)c2c1`, the GI50 with HCT-116 was 37.7 µM (inactive); in the assay on SK-MEL-5, 19.5 µM (inactive); in the assay on SW-620, 41.8 µM (inactive); in the assay on NCI-H226, 52.4 µM (inactive); in the assay with HCT-15, 19 µM; in the assay with EKVX, 51.2 µM (inactive). Moreover, the GI50 in the assay on NCI-H23 was 34.1 µM (inactive); in the assay with NCI-H460 it was 20.3 µM (inactive); in the assay on LOX IMVI, 19.5 µM (inactive); in the assay on M19-MEL, 37.8 µM (inactive); in the assay with DLD-1, 21.5 µM (inactive); in the assay on K562, 30.8 µM (inactive). Moreover, the GI50 is 21.4 µM (inactive) in the assay with M14; 34.1 µM (inactive) in the assay with A498; 41.4 µM (inactive) in the assay with RXF 393; 26.1 µM (inactive) with KM12; 30.1 µM (inactive) with UACC-257.
As to `Cc1ccc(C(=O)/C=C2\Nc3c(c(=O)oc4ccccc34)N=C2NC23CC4CC(CC(C4)C2)C3)cc1`, the GI50 in the assay with HCT-116 is > 100 µM (inactive); in the assay on SK-MEL-5, > 100 µM (inactive); in the assay on SW-620, > 100 µM (inactive); in the assay with NCI-H226 it was > 100 µM (inactive); in the assay on HCT-15 it was above 100 µM; with RPMI-8226, > 100 µM (inactive). The GI50 is > 100 µM (inactive) in the assay with EKVX; > 100 µM (inactive) with NCI-H23; > 100 µM (inactive) in the assay with NCI-H460; > 100 µM (inactive) in the assay with LOX IMVI; > 100 µM (inactive) in the assay on M19-MEL; 89.9 µM (inactive) with DLD-1. Also, the GI50 in the assay with K562, with M14, in the assay with RXF 393, with KM12 and in the assay with UACC-257 was > 100 µM (inactive) throughout.
Turning to `C1=C2/CC[C@H](Sc3ccccc3)[C@H]2C2(CCCCC/1)OCCO2`, the GI50 with HCT-116 is 39.8 µM (inactive); with SK-MEL-5 it was 29.6 µM (inactive); with SW-620, 29 µM (inactive); in the assay with HCT-15, 28.2 µM; in the assay on RPMI-8226, 24.4 µM (inactive); in the assay with EKVX, 18.5 µM (inactive). For the same compound, the GI50 with NCI-H23 is 34.8 µM (inactive); with NCI-H460 it was 63.4 µM (inactive); with LOX IMVI it was 18.7 µM (inactive); in the assay on M19-MEL it was 25.1 µM (inactive); in the assay on DLD-1 it was 61.4 µM (inactive); with K562, 32.1 µM (inactive). The GI50 in the assay on M14 was 27.9 µM (inactive); in the assay with KM12, 29.9 µM (inactive); in the assay with UACC-257 it was 20.2 µM (inactive).
For `COC(=O)N1C=CC2=C(C)C3Nc4ccccc4C3C(C)=C2C1` (configuration not stated), the GI50 in the assay on HCT-116 is 0.643 µM (active); in the assay on SK-MEL-5 it was 3.15 µM (inactive); in the assay on SW-620 it was 1.01 µM (active); in the assay with NCI-H226, 1.61 µM (inactive); with HCT-15, 1.12 µM; with RPMI-8226, 0.804 µM (active). The GI50 in the assay on EKVX was 1.25 µM (inactive); with NCI-H23, 4.54 µM (inactive); with NCI-H460, 0.256 µM (active); in the assay with LOX IMVI it was 2.23 µM (inactive); in the assay on M19-MEL, 2.78 µM (inactive); with DLD-1, 1.74 µM (inactive). Moreover, the GI50 in the assay on K562 was 2.09 µM (inactive); with M14, 1.64 µM (inactive); with A498, 16.2 µM (inactive); with UACC-257 it was 3.21 µM (inactive).
Take `CCc1cccc(=O)c([O-])c1.CCc1cccc(=O)c([O-])c1.[Bi+3].[Cl-]`: the GI50 was 7.45 µM (inactive) in the assay on HCT-116; 13.1 µM (inactive) in the assay on SK-MEL-5; 3.23 µM (inactive) in the assay with SW-620; 23.2 µM (inactive) in the assay on NCI-H226; 3.66 µM with HCT-15; 13.8 µM (inactive) with EKVX. Moreover, the GI50 in the assay on NCI-H23 is 13.5 µM (inactive); with NCI-H460, 6.49 µM (inactive); in the assay with LOX IMVI, 7.53 µM (inactive); in the assay on M19-MEL it was 6.98 µM (inactive); in the assay with DLD-1 it was 2.91 µM (inactive); with K562, 2.81 µM (inactive). The GI50 with M14 was 8.38 µM (inactive); in the assay on A498 it was 15 µM (inactive); with RXF 393, 18.2 µM (inactive); in the assay with KM12 it was 12.4 µM (inactive); with UACC-257, 6.58 µM (inactive).
Consider `Cc1c(C(=O)O)oc2ccc([N+](=O)[O-])cc12`, for which the GI50 in the assay with HCT-116 was > 100 µM (inactive); in the assay with SK-MEL-5, > 100 µM (inactive); in the assay on SW-620, > 100 µM (inactive); in the assay on HCT-15, above 100 µM; with RPMI-8226, > 10 µM (inactive); in the assay on EKVX, > 100 µM (inactive). The GI50 in the assay on NCI-H23, in the assay on NCI-H460, in the assay with LOX IMVI, in the assay on M19-MEL, in the assay with DLD-1 and with K562 was > 100 µM (inactive) throughout. For the same compound, the GI50 in the assay on M14, in the assay on A498, in the assay with KM12 and with UACC-257 was > 100 µM (inactive) in each case.
Turning to `CCOc1ccccc1NC(=O)C1=C(C)NC(C)=C(C(=O)Nc2ccccc2OCC)C1c1ccc2c(c1)OCO2`, the GI50 was 11.1 µM (inactive) with SK-MEL-5; 38.4 µM (inactive) with SW-620; 22 µM (inactive) in the assay with NCI-H226; 17.4 µM (inactive) with RPMI-8226; 39.6 µM (inactive) with EKVX; 23.9 µM (inactive) in the assay on NCI-H23. In addition, the GI50 in the assay with NCI-H460 was 29.1 µM (inactive); with LOX IMVI it was 34 µM (inactive); in the assay on M19-MEL, 30.1 µM (inactive); in the assay with DLD-1 it was 22.2 µM (inactive); in the assay on K562, 6.01 µM (inactive); in the assay with M14, 18.8 µM (inactive). The GI50 with A498 was 34.9 µM (inactive); in the assay on RXF 393, 16.8 µM (inactive); in the assay on KM12, 11.8 µM (inactive); with UACC-257, 22 µM (inactive).
Consider `NC1=NC(=O)/C(=C/c2ccccc2[N+](=O)[O-])C(N)=N1`, for which the GI50 is > 100 µM (inactive) in the assay with HCT-116; > 100 µM (inactive) in the assay on SK-MEL-5; > 100 µM (inactive) in the assay with SW-620; > 100 µM (inactive) with NCI-H226; above 100 µM with HCT-15; > 100 µM (inactive) with RPMI-8226. Also, the GI50 with EKVX, in the assay with NCI-H23, with NCI-H460, in the assay on LOX IMVI, with M19-MEL and with DLD-1 was > 100 µM (inactive) in each case. In addition, the GI50 with K562, in the assay with M14, with RXF 393, with KM12 and in the assay on UACC-257 was > 100 µM (inactive) each time.
Turning to `CCOC(=O)C(=O)Nc1ccccc1C(C)C`, the GI50 is > 100 µM (inactive) in the assay on HCT-116; > 100 µM (inactive) in the assay on SK-MEL-5; > 100 µM (inactive) in the assay with SW-620; > 100 µM (inactive) in the assay with NCI-H226; above 100 µM in the assay on HCT-15; > 100 µM (inactive) in the assay with RPMI-8226. Further, the GI50 with EKVX, in the assay on NCI-H23, in the assay with NCI-H460, with M19-MEL, in the assay with DLD-1 and in the assay with K562 was > 100 µM (inactive) in each case. The GI50 in the assay on M14, in the assay on A498, in the assay on KM12 and in the assay with UACC-257 was > 100 µM (inactive) throughout.
In the case of `CCOc1ccccc1NC(=O)CC1SC(Nc2ccc([N+](=O)[O-])cc2)=NC1=O` (configuration not stated), the GI50 was 15.3 µM (inactive) in the assay on HCT-116; 16 µM (inactive) in the assay with SK-MEL-5; 23.1 µM (inactive) with SW-620; 20.4 µM (inactive) with NCI-H226; 6.95 µM (inactive) with RPMI-8226; 27.5 µM (inactive) in the assay on EKVX. In addition, the GI50 in the assay with NCI-H23 is 16.6 µM (inactive); in the assay with NCI-H460 it was 21.3 µM (inactive); with LOX IMVI, 18.5 µM (inactive); in the assay with M19-MEL, 25.4 µM (inactive); in the assay with DLD-1 it was 22.9 µM (inactive); with M14 it was 23.3 µM (inactive). The GI50 with RXF 393 is 18.1 µM (inactive); with KM12, 18.7 µM (inactive); in the assay with UACC-257 it was 17.3 µM (inactive).
